Measured values from patent US20260317320A1, “C5AR1 ANTAGONISTS AND USES THEREOF” (Vanqua Bio, Inc., priority 2022, published 2026).
pIC50: −log10 of the molar value. Where two headings read alike, the source gives them in different places.

Columns and labels:
[1] = biological target: T1, complement C5a receptor 1 (C5aR1) (Homo sapiens, UniProt P21730); assay: β-arrestin recruitment via C5aR1 activation in live CHO-K1 cells (PathHunter), antagonist mode; assay type: cell-based; settings: antagonist mode; recombinant hC5a (EC90) as competing natural agonist; live CHO-K1 cells; read-out: [Antagonist] B-arrestin2 recruitment: Average IC50
T1 construct: β-galactosidase fragment (PathHunter enzyme complementation); host or cells: CHO-K1 (PathHunter CHO-K1 C5aR1 β-arrestin cell line)
T1 sequence (P21730 1-350): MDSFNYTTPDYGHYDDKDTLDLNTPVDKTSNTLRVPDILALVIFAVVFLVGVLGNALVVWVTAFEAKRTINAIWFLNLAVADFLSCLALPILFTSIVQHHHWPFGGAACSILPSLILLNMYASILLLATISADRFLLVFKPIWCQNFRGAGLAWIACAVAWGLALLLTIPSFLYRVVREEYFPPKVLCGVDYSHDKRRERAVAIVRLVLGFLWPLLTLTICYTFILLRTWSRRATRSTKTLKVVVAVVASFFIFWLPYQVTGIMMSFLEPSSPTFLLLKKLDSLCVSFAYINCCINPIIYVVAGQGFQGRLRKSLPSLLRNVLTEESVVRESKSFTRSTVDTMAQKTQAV
Summary of the method: (§1)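 β-arrestin recruitment to C5aR1 in CHO-K1 cells is detected by enzyme-fragment complementation. Antagonism is measured against recombinant hC5a at its EC90; agonism is measured with compound alone. Potencies are grouped into IC50 categories.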

[2] = biological target: T1, complement C5a receptor 1 (C5aR1); assay: β-arrestin recruitment via C5aR1 activation in live CHO-K1 cells (PathHunter), agonist mode; assay type: cell-based
Summary of the method: as §1

SMILES	pIC50 [1]	[Agonist] B-arrestin2 recruitment: Average EC50 (nM) [2]	[Agonist] B-arrestin2 recruitment: Average EC50 (nM) ([2]; at 10 μM)
Cc1cnc2c(C)c(N3CCN(c4c(C)cccc4F)CC3)c(=O)n(Cc3ncccc3C(F)(F)F)c2n1 [compound 118, 7-(4-(2-fluoro-6-methylphenyl)piperazin-1-yl)-3,8-dimethyl-5-((3-(trifluoromethyl)pyridin-2-yl)methyl)pyrido[2,3-b]pyrazin-6(5H)-one]	5.30 to 6.30	Non-Active	
Cc1cnc2cc(C3CCN(c4c(C)cccc4F)CC3)c(=O)n(Cc3nccnc3C(F)F)c2n1 [compound 120, 5-((3-(Difluoromethyl)pyrazin-2-yl)methyl)-7-(1-(2-fluoro-6-methylphenyl)piperidin-4-yl)-3-methylpyrido[2,3-b]pyrazin-6(5H)-one]	> 6.30	Non-Active	
Cc1cccc(F)c1N1CCN(c2cc3nccnc3n(Cc3ncccc3OC(F)(F)F)c2=O)CC1 [compound 123, 7-(4-(2-Fluoro-6-methylphenyl)piperazin-1-yl)-5-((3-(trifluoromethoxy)pyridin-2-yl)methyl)pyrido[2,3-b]pyrazin-6(5H)-one]	> 6.30	Non-Active	
Cc1cnc2cc(N3CCN(c4c(C)cccc4F)CC3)c(=O)n(Cc3ncccc3OC(F)(F)F)c2n1 [compound 124, 7-(4-(2-Fluoro-6-methylphenyl)piperazin-1-yl)-3-methyl-5-((3-(trifluoromethoxy)pyridin-2-yl)methyl)pyrido[2,3-b]pyrazin-6(5H)-one]	> 6.30	Non-Active	
COc1nccnc1Cn1c(=O)c(N2CCN(c3c(C)cccc3F)CC2)cc2ncc(C)nc21 [compound 125, 7-(4-(2-Fluoro-6-methylphenyl)piperazin-1-yl)-5-((3-methoxypyrazin-2-yl)methyl)-3-methylpyrido[2,3-b]pyrazin-6(5H)-one]	5.30 to 6.30	Non-Active	
Cc1nccnc1Cn1c(=O)c(C2CCN(c3c(F)cccc3C(F)(F)F)CC2)cc2nccnc21 [compound 126, 7-(1-(2-Fluoro-6-(trifluoromethyl)phenyl)piperidin-4-yl)-5-((3-methylpyrazin-2-yl)methyl)pyrido[2,3-b]pyrazin-6(5H)-one]	5.30 to 6.30	Non-Active	
Cc1ccnc(F)c1N1CCC(c2cc3nccnc3n(Cc3ncccc3C(F)(F)F)c2=O)CC1 [compound 127, 7-(1-(2-Fluoro-4-methylpyridin-3-yl)piperidin-4-yl)-5-((3-(trifluoromethyl)pyridin-2-yl)methyl)pyrido[2,3-b]pyrazin-6(5H)-one]	> 6.30	Non-Active	
Cc1ccnc(F)c1N1CCC(c2cc3nccnc3n(Cc3nccnc3C)c2=O)CC1 [compound 128, 7-(1-(2-Fluoro-4-methylpyridin-3-yl)piperidin-4-yl)-5-((3-methylpyrazin-2-yl)methyl)pyrido[2,3-b]pyrazin-6(5H)-one]	4.00 to 5.30		Non-Active at 10 μM
Cc1ccnc(F)c1N1CCC(c2cc3nccnc3n(Cc3nccnc3C(F)(F)F)c2=O)CC1 [compound 129, 7-(1-(2-Fluoro-4-methylpyridin-3-yl)piperidin-4-yl)-5-((3-(trifluoromethyl)pyrazin-2-yl)methyl)pyrido[2,3-b]pyrazin-6(5H)-one]	> 6.30	Non-Active	
Cc1cnc2cc(C3CCN(c4c(C)ccnc4F)CC3)c(=O)n(Cc3nccnc3C(F)(F)F)c2n1 [compound 130, 7-(1-(2-Fluoro-4-methylpyridin-3-yl)piperidin-4-yl)-3-methyl-5-((3-(trifluoromethyl)pyrazin-2-yl)methyl)pyrido[2,3-b]pyrazin-6(5H)-one]	> 6.30	Non-Active	
Cc1cnc2cc(C3CCN(c4ncsc4C)CC3)c(=O)n(Cc3ncccc3C(F)(F)F)c2n1 [compound 131]	> 6.30	Non-Active	
Cc1cnc2cc(C3CCN(c4nncs4)CC3)c(=O)n(Cc3ncccc3C(F)(F)F)c2n1 [compound 132, 7-(1-(1,3,4-Thiadiazol-2-yl)piperidin-4-yl)-3-methyl-5-((3-(trifluoromethyl)pyridin-2-yl)methyl)pyrido[2,3-b]pyrazin-6(5H)-one]	< 4.00	Non-Active	
Cc1cnc2cc(C3CCN(c4c(C)ccnc4F)CC3)c(=O)n(Cc3ncccc3C(F)(F)F)c2n1 [compound 133, 7-(1-(2-Fluoro-4-methylpyridin-3-yl)piperidin-4-yl)-3-methyl-5-((3-(trifluoromethyl)pyridin-2-yl)methyl)pyrido[2,3-b]pyrazin-6(5H)-one]	> 6.30	Non-Active	
Cc1cnc2cc(C3CCN(c4c(C)ccnc4F)CC3)c(=O)n(Cc3nccnc3C)c2n1 [compound 134, 7-(1-(2-Fluoro-4-methylpyridin-3-yl)piperidin-4-yl)-3-methyl-5-((3-methylpyrazin-2-yl)methyl)pyrido[2,3-b]pyrazin-6(5H)-one]	> 6.30		Non-Active at 10 μM
Cc1cccc(F)c1N1CCC(c2nc3ccccc3n(Cc3nccnc3C(F)(F)F)c2=O)CC1 [compound 136, 3-(1-(2-Fluoro-6-methylphenyl)piperidin-4-yl)-1-((3-(trifluoromethyl)pyrazin-2-yl)methyl)quinoxalin-2(1H)-one]	< 4.00	Non-Active	
Cc1cnc2cc(C3CCN(c4c(C)cccc4F)CC3)c(=O)n(Cc3ncccc3C(F)F)c2n1 [compound 138, 5-((3-(Difluoromethyl)pyridin-2-yl)methyl)-7-(1-(2-fluoro-6-methylphenyl)piperidin-4-yl)-3-methylpyrido[2,3-b]pyrazin-6(5H)-one]	> 6.30	Non-Active	
Cc1cccc(F)c1N1CCC(c2nc3ccccc3n(Cc3ncccc3C(F)(F)F)c2=O)CC1 [compound 139, 3-(1-(2-Fluoro-6-methylphenyl)piperidin-4-yl)-1-((3-(trifluoromethyl)pyridin-2-yl)methyl)quinoxalin-2(1H)-one]	< 4.00		Non-Active at 10 μM
Cc1cnc2cc(N3CCN(c4c(C)cccc4F)CC3)c(=O)n(Cc3ncccc3C(F)F)c2n1 [compound 140, 5-((3-(Difluoromethyl)pyridin-2-yl)methyl)-7-(4-(2-fluoro-6-methylphenyl)piperazin-1-yl)-3-methylpyrido[2,3-b]pyrazin-6(5H)-one]	> 6.30		Non-Active at 10 μM
Cc1cnc2cc(C3CCN(c4c(C)ccnc4F)CC3)c(=O)n(Cc3ncccc3C(F)F)c2n1 [compound 141, 5-((3-(Difluoromethyl)pyridin-2-yl)methyl)-7-(1-(2-fluoro-4-methylpyridin-3-yl)piperidin-4-yl)-3-methylpyrido[2,3-b]pyrazin-6(5H)-one]	> 6.30	Non-Active	
Cc1cnc2cc(C3CCN(c4cnsc4C)CC3)c(=O)n(Cc3ncccc3C(F)(F)F)c2n1 [compound 145, 3-Methyl-7-(1-(5-methylisothiazol-4-yl)piperidin-4-yl)-5-((3-(trifluoromethyl)pyridin-2-yl)methyl)pyrido[2,3-b]pyrazin-6(5H)-one]	> 6.30	Non-Active	
Cc1cnc2cc(C3CCN(c4nccnc4C)CC3)c(=O)n(Cc3ncccc3C(F)(F)F)c2n1 [compound 151, 3-Methyl-7-(1-(3-methylpyrazin-2-yl)piperidin-4-yl)-5-((3-(trifluoromethyl)pyridin-2-yl)methyl)pyrido[2,3-b]pyrazin-6(5H)-one]	5.30 to 6.30		Non-Active at 10 μM
Cc1cnc2cc([C@H]3CC[C@H](c4c(C)cccc4F)CC3)c(=O)n(Cc3ncccc3OC(F)(F)F)c2n1 [compound 152, 7-((1r,4r)-4-(2-Fluoro-6-methylphenyl)cyclohexyl)-3-methyl-5-((3-(trifluoromethoxy)pyridin-2-yl)methyl)pyrido[2,3-b]pyrazin-6(5H)-one]	> 6.30	Non-Active	
Cc1cnc2cc(C3CCN(c4nccnc4C)CC3)c(=O)n(Cc3ncccc3OC(F)(F)F)c2n1 [compound 153, 3-Methyl-7-(1-(3-methylpyrazin-2-yl)piperidin-4-yl)-5-((3-(trifluoromethoxy)pyridin-2-yl)methyl)pyrido[2,3-b]pyrazin-6(5H)-one]	5.30 to 6.30		Non-Active at 10 μM
Cc1cnc2cc(C3CCN(c4ncccc4C(F)F)CC3)c(=O)n(Cc3ncccc3C(F)(F)F)c2n1 [compound 154, 7-(1-(3-(Difluoromethyl)pyridin-2-yl)piperidin-4-yl)-3-methyl-5-((3-(trifluoromethyl)pyridin-2-yl)methyl)pyrido[2,3-b]pyrazin-6(5H)-one]	> 6.30		Non-Active at 10 μM
